Test results published in patent US20040249122A1, “Cationic, amphipathic beta-sheet peptides and uses thereof” (priority 2003, published 2004).
≈ marks a conversion by molar mass, not a printed value. Entries after “also recorded” stand apart in the source; their conditions may differ. Where a SMILES comes first, the peptide text is derived from it. The star is where a group is joined. Octanoyl = CCCCCCCC(=O)*

Legend:
[1] = system: Pseudomonas aeruginosa (ATCC 27853); format: cell-based; details: ATCC 27853
Procedure: (§1) Antimicrobial and Hemolytic Assays. Antimicrobial susceptibility testing against Staphylococcus aureus (ATCC 29213), Escherichia coli (ATCC 25922), and Pseudomonas aeruginosa (ATCC 27853) was performed using a modification of the National Committee for Clinical Laboratory Standards microdilution broth assay (22). Mueller-Hinton broth (BBL) was used for diluting the peptide stock solution and for diluting the bacterial inoculum. The inoculum was prepared from mid-logarithmic phase cultures. […] The final concentration of peptide solution ranged-from 0.25 to 256 μg/mL in two-fold dilutions. The final concentration of bacteria in the wells was 5×10^5 CFU/mL. Peptides were tested in duplicate. In addition to the test peptide, three standard peptides and a non-treated growth control were included to validate the assay. The microtiter plates were incubated overnight at 37° C. and the absorbance was measured at 600 nm. […] After incubation at 37° C. for 30 min, the suspension was centrifuged at 10,000×g for 10 min and the absorbance at 400 nm was measured.

[2] = system: Staphylococcus aureus (ATCC 29213); format: cell-based; details: ATCC 29213
Procedure: as §1

[3] = system: Escherichia coli (ATCC 25922); format: cell-based; details: ATCC 25922
Procedure: as §1

[4] = system: E. coli, S. aureus, and P. aeruginosa; format: cell-based
Procedure: Antimicrobial and Hemolytic Assays. Antimicrobial susceptibility testing against Staphylococcus aureus (ATCC 29213), Escherichia coli (ATCC 25922), and Pseudomonas aeruginosa (ATCC 27853) was performed using a modification of the National Committee for Clinical Laboratory Standards microdilution broth assay (22). Mueller-Hinton broth (BBL) was used for diluting the peptide stock solution and for diluting the bacterial inoculum. The inoculum was prepared from mid-logarithmic phase cultures. Microtiter plate wells received aliquots-of 100 μL each of the inoculum and peptide dilution. The final concentration of peptide solution ranged-from 0.25 to 256 μg/mL in two-fold dilutions. The final concentration of bacteria in the wells was 5×10^5 CFU/mL. Peptides were tested in duplicate. In addition to the test peptide, three standard peptides and a non-treated growth control were included to validate the assay. The microtiter plates were incubated overnight at 37° C. and the absorbance was measured at 600 nm. […] Hemolysis at peptide concentrations of 500 μg/mL was determined using a 5% suspension of freshly drawn human erythrocytes, which had been washed twice in phosphate buffered saline. After incubation at 37° C. for 30 min, the suspension was centrifuged at 10,000×g for 10 min and the absorbance at 400 nm was measured. Complete hemolysis was determined by adding 0.2% Triton X-100 in place of the peptide.

[5] = Peptide-induced leakage from calcein-loaded LUV
Procedure: Peptide-Induced Leakage from Calcein-Loaded LUV. The ability of the peptides to release calcein (MW 623) from LUV of varying lipid composition was compared. LUV were prepared as above, except that-the buffer consisted of 50 mM HEPES, 100 mM NaCl, 0.3 mM EDTA, 80 mM calcein, pH 7.4. Calcein-loaded vesicles were separated from free calcein by size-exclusion chromatography using a Sephadex G-50 column and calcein-free buffer. Calcein leakage was monitored using a Perkin-Elmer LS-500 luminescence spectrometer by measuring the time-dependent increase in fluorescence of calcein (excitation=490 nm, emission=520 nm). LUV containing 8 nmoles of lipid were added to 1.5 mL of buffer in a stirred cuvet at 25° C. An aliquot of peptide was added to achieve the desired lipid-to-peptide ratio (256 to 8). Complete leakage was determined by the addition of 20 μL of 10% Triton X-100. Each value represents at least nine different measurements using at least three different LUV preparations.

Row | Structure (SMILES) | MIC Pseud. aerug [1] [µg/mL] | MIC Staph. aureus [2] [µg/mL] | MIC E. coli [3] [µg/mL] | MIC values [4] [µg/mL] | antimicrobial activity (in words) [4] | calcein leakage from LUV (in words) ([5]; LUVs from E. coli lipids) | calcein leakage from LUV (in words) ([5]; POPC (PC) LUV)
1 | CC(C)C[C@H](NC(=O)CNC(=O)[C@H](CCCCN)NC(=O)[C@H](C)NC(=O)[C@H](CC(C)C)NC(=O)[C@H](CCCCN)NC(=O)[C@H](C)NC(=O)[C@H](CC(C)C)NC(=O)CNC(=O)[C@H](CCCCN)NC(=O)[C@H](C)NC(=O)[C@H](Cc1c[nH]c2ccccc12)NC(=O)[C@H](CCCCN)NC(=O)[C@H](C)NC(=O)[C@H](CC(C)C)NC(=O)CNC(=O)[C@H](CCCCN)NC(=O)[C@H](C)NC(=O)[C@H](CC(C)C)NC(=O)[C@@H](N)CCCCN)C(=O)N[C@@H](C)C(N)=O [1,4-Hept, KLAKGLAKWAKGLAKLAKGLA-NH2] (H-KLAKGLAKWAKGLAKLAKGLA-NH2; N-terminus assumed) | 32 (≈ 15 µM) | 8 to 16 | 8 (≈ 3.75 µM) | – | relatively low MIC values | – | –
2 | CC(C)C[C@H](NC(=O)[C@H](CCCCN)NC(=O)CNC(=O)[C@H](C)NC(=O)[C@H](CC(C)C)NC(=O)[C@H](CCCCN)NC(=O)[C@H](C)NC(=O)[C@H](CC(C)C)NC(=O)[C@H](CCCCN)NC(=O)CNC(=O)[C@H](C)NC(=O)[C@H](Cc1c[nH]c2ccccc12)NC(=O)[C@H](CCCCN)NC(=O)[C@H](C)NC(=O)[C@H](CC(C)C)NC(=O)[C@H](CCCCN)NC(=O)CNC(=O)[C@H](C)NC(=O)[C@H](CC(C)C)NC(=O)[C@@H](N)CCCCN)C(=O)N[C@@H](C)C(N)=O [1,5-Hept, KLAGKLAKWAGKLAKLAGKLA-NH2] (H-KLAGKLAKWAGKLAKLAGKLA-NH2; N-terminus assumed) | 16 (≈ 7.49 µM) | 4 (≈ 1.87 µM) | 8 (≈ 3.75 µM) | – | relatively low MIC values | – | –
3 | CC(C)C[C@H](NC(=O)CNC(=O)[C@H](C)NC(=O)[C@H](CC(C)C)NC(=O)[C@H](CCCCN)NC(=O)[C@H](C)NC(=O)[C@H](CCCCN)NC(=O)[C@H](CC(C)C)NC(=O)CNC(=O)[C@H](C)NC(=O)[C@H](Cc1c[nH]c2ccccc12)NC(=O)[C@H](CCCCN)NC(=O)[C@H](C)NC(=O)[C@H](CCCCN)NC(=O)[C@H](CC(C)C)NC(=O)CNC(=O)[C@H](C)NC(=O)[C@H](CC(C)C)NC(=O)[C@@H](N)CCCCN)C(=O)N[C@@H](CCCCN)C(=O)N[C@@H](C)C(N)=O [1,6-Hept, KLAGLKAKWAGLKAKLAGLKA-NH2] (H-KLAGLKAKWAGLKAKLAGLKA-NH2; N-terminus assumed) | >256 | >256 | >256 | – | devoid of antimicrobial activity | – | –
4 | CC(C)C[C@H](NC(=O)CNC(=O)[C@H](C)NC(=O)[C@H](CC(C)C)NC(=O)[C@H](CCCCN)NC(=O)[C@H](CCCCN)NC(=O)[C@H](C)NC(=O)[C@H](CC(C)C)NC(=O)CNC(=O)[C@H](C)NC(=O)[C@H](Cc1c[nH]c2ccccc12)NC(=O)[C@H](CCCCN)NC(=O)[C@H](CCCCN)NC(=O)[C@H](C)NC(=O)[C@H](CC(C)C)NC(=O)CNC(=O)[C@H](C)NC(=O)[C@H](CC(C)C)NC(=O)[C@@H](N)CCCCN)C(=O)N[C@@H](C)C(=O)N[C@@H](CCCCN)C(N)=O [1,7-Hept, KLAGLAKKWAGLAKKLAGLAK-NH2] (H-KLAGLAKKWAGLAKKLAGLAK-NH2; N-terminus assumed) | 16 (≈ 7.49 µM) | 16 (≈ 7.49 µM) | 8 (≈ 3.75 µM) | – | relatively low MIC values | – | –
5 | CCCCCCCC(=O)N[C@@H](CCCCN)C(=O)N[C@@H](CC(C)C)C(=O)N[C@@H](CCCCN)C(=O)N[C@@H](Cc1c[nH]c2ccccc12)C(=O)N[C@@H](CCCCN)C(=O)N[C@@H](CC(C)C)C(=O)N[C@@H](CCCCN)C(=O)N[C@@H](CC(C)C)C(=O)N[C@@H](CCCCN)C(=O)N[C@@H](CC(C)C)C(=O)N[C@@H](CCCCN)C(N)=O [Oct-Beta-11, Oct- K L K W K L K L K L K-NH2] (Octanoyl-KLKWKLKLKLK-NH2) | 8 (≈ 5.16 µM) | 4 (≈ 2.58 µM) | 16 (≈ 10.3 µM) | – | reasonable antimicrobial activity | – | –
6 | CCCCCCCC(=O)N[C@@H](CCCCN)C(=O)N[C@@H](Cc1c[nH]c2ccccc12)C(=O)NCC(=O)N[C@@H](C)C(=O)N[C@@H](CCCCN)C(=O)N[C@H](C(N)=O)[C@@H](C)CC [Oct-KIGAKI-6, Oct- K W G A K I-NH2] (Octanoyl-KWGAKI-NH2) | >256 | >256 | >256 | – | no activity | – | –

Second part, led by results:

Row | MIC Pseud. aerug [1] [µg/mL] | MIC Staph. aureus [2] [µg/mL] | MIC E. coli [3] [µg/mL] | MIC values [4] [µg/mL] | Structure (SMILES) | antimicrobial activity (in words) [4] | calcein leakage from LUV (in words) ([5]; LUVs from E. coli lipids) | calcein leakage from LUV (in words) ([5]; POPC (PC) LUV)
7 | 16 (≈ 8.99 µM) | 16 (≈ 8.99 µM) | 32 (≈ 18 µM) | 4 to 16 | CC(C)C[C@H](NC(=O)[C@H](CCCCN)NC(=O)[C@H](CC(C)C)NC(=O)[C@H](CCCCN)NC(=O)[C@H](CC(C)C)NC(=O)[C@H](CCCCN)NC(=O)[C@H](Cc1c[nH]c2ccccc12)NC(=O)[C@H](CCCCN)NC(=O)[C@H](CC(C)C)NC(=O)[C@H](CCCCN)NC(=O)[C@H](CC(C)C)NC(=O)[C@H](CCCCN)NC(=O)[C@H](CC(C)C)NC(=O)[C@@H](N)CCCCN)C(N)=O [KL-14, K L K L K L K W K L K L K L-NH2] (H-KLKLKLKWKLKLKL-NH2; N-terminus assumed) | – | highly effective | quite lytic
8 | 32 (≈ 14.1 µM) | 16 (≈ 7.07 µM) | 64 (≈ 28.3 µM) | 4 to 16 | CC(C)C[C@H](NC(=O)[C@H](CCCCN)NC(=O)[C@H](CC(C)C)NC(=O)[C@H](CCCCN)NC(=O)[C@H](CC(C)C)NC(=O)[C@H](CCCCN)NC(=O)[C@H](CC(C)C)NC(=O)[C@H](CCCCN)NC(=O)[C@H](CC(C)C)NC(=O)[C@H](CCCCN)NC(=O)[C@H](Cc1c[nH]c2ccccc12)NC(=O)[C@H](CCCCN)NC(=O)[C@H](CC(C)C)NC(=O)[C@H](CCCCN)NC(=O)[C@H](CC(C)C)NC(=O)[C@H](CCCCN)NC(=O)[C@H](CC(C)C)NC(=O)[C@@H](N)CCCCN)C(N)=O [KL-18, K L K L K L K W K L K L K L K L K L-NH2] (H-KLKLKLKWKLKLKLKLKL-NH2; N-terminus assumed) | – | highly effective | most potent; also recorded: quite lytic
